The text below walks through data of patent US10214542B2, “Modified macrocyclic compounds” (BAYER PHARMA AKTIENGESELLSCHAFT, priority 2015, dated 2019).

One experiment has as its target T1, CDK2/CycE (Homo sapiens, UniProt P24941).
T1 construct: GST; purchased ProQinase GmbH (Freiburg, Germany); host or cells: insect cells (Sf9)
Kind of experiment: CDK2/CycE kinase assay (TR-FRET, Method 2a). It is filed as biochemical. The conditions noted are these: 10 μM ATP. The text has this:
2a. CDK2/CycE Kinase Assay:
CDK2/CycE-inhibitory activity of compounds of the present invention was quantified employing the CDK2/CycE TR-FRET assay as described in the following paragraphs:
Recombinant fusion proteins of GST and human CDK2 and of GST and human CycE, expressed in insect cells (Sf9) and purified by Glutathion-Sepharose affinity chromatography, were purchased from ProQinase GmbH (Freiburg, Germany). As substrate for the kinase reaction biotinylated peptide biotin-Ttds-YISPLKSPYKISEG (C-terminus in amid form) was used which can be purchased e.g. from the company JERINI Peptide Technologies (Berlin, Germany).
For the assay 50 nl of a 100 fold concentrated solution of the test compound in DMSO was pipetted into a black low volume 384 well microtiter plate (Greiner Bio-One, Frickenhausen, Germany), 2 μl of a solution of CDK2/CycE in aqueous assay buffer [50 mM Tris/HCl pH 8.0, 10 mM MgCl2, 1.0 mM dithiothreitol, 0.1 mM sodium ortho-vanadate, 0.01% (v/v) Nonidet-P40 (Sigma)] were added and the mixture was incubated for 15 min at 22° C. to allow pre-binding of the test compounds to the enzyme before the start of the kinase reaction. […] The concentration of CDK2/CycE was adjusted depending of the activity of the enzyme lot and was chosen appropriate to have the assay in the linear range, typical concentrations were in the range of 130 ng/mL. The reaction was stopped by the addition of 5 μl of a solution of TR-FRET detection reagents (0.2 μM streptavidine-XL665 [Cisbio Bioassays, Codolet, France] and 1 nM anti-RB(pSer807/pSer811)-antibody from BD Pharmingen [#558389] and 1.2 nM LANCE EU-W1024 labeled anti-mouse IgG antibody [Perkin-Elmer, product no. AD0077]) in an aqueous EDTA-solution (100 mM EDTA, 0.2% (w/v) bovine serum albumin in 100 mM HEPES pH 7.5).
The resulting mixture was incubated 1 h at 22° C. to allow the formation of complex between the phosphorylated biotinylated peptide and the detection reagents. Subsequently the amount of phosphorylated substrate was evaluated by measurement of the resonance energy transfer from the Eu-chelate to the streptavidine-XL. Therefore, the fluorescence emissions at 620 nm and 665 nm after excitation at 350 nm was measured in a TR-FRET reader, e.g. a Rubystar (BMG Labtechnologies, Offenburg, Germany) or a Viewlux (Perkin-Elmer). The ratio of the emissions at 665 nm and at […] was taken as the measure for the amount of phosphorylated substrate. The data were normalised (enzyme reaction without inhibitor=0% inhibition, all other assay components but no enzym=100% inhibition).
In general terms: Time-resolved FRET reads energy transfer from a long-lived donor to a nearby acceptor.

Another experiment deals with B16F10 cells. Put plainly: Proliferation assay, crystal violet (Method 3). The experiment is classed as cell-based. The conditions noted are these: Mus musculus, B16-F10, 96 h; B16F10, 4 days; read-out: Inhibition of B16F10 cell proliferation IC50. As to the method: (§1) Cultivated tumour cells (HeLa, human cervical tumour cells, ATCC CCL-2; NCI-H460, human non-small cell lung carcinoma cells, ATCC HTB-177; DU 145, hormone-independent human prostate carcinoma cells, ATCC HTB-81; HeLa-MaTu-ADR, multidrug-resistant human cervical carcinoma cells, EPO-GmbH Berlin; Caco-2, human colorectal carcinoma cells, ATCC HTB-37; B16F10, mouse melanoma cells, ATCC CRL-6475) were plated at a density of 5,000 cells/well (DU145, HeLa-MaTu-ADR), 3,000 cells/well (NCI-H460, HeLa), 1,500 cells/well (Caco-2), or 1,000 cells/well (B16F10) in a 96-well multititer plate in 200 μL of their respective growth medium supplemented 10% fetal calf serum. After 24 hours, the cells of one plate (zero-point plate) were stained with crystal violet (see below), while the medium of the other plates was supplemented with the test substances in various concentrations (0 μM, as well as in the range of 0.0001-10 μM; the final concentration of the solvent dimethyl sulfoxide was adjusted to 0.1%) using a Hewlett-Packard HP D300 Digital Dispenser. The cells were incubated for 4 days in the presence of test substances. Cell proliferation was determined by staining the cells with crystal violet: the cells were fixed by adding 20 μl/measuring point of an 11% glutaric aldehyde solution for 15 minutes at room temperature. After three washing cycles of the fixed cells with water, the plates were dried at room temperature. The cells were stained by adding 100 μl/measuring point of a 0.1% crystal violet solution (pH 3.0). After three washing cycles of the stained cells with water, the plates were dried at room temperature. The dye was dissolved by adding 100 μl/measuring point of a 10% acetic acid solution. The extinction was determined by photometry at a wavelength of 595 nm. The change of cell number, in percent, was calculated by normalization of the measured values to the extinction values of the zero-point plate (=0%) and the extinction of the untreated (0 μm) cells (=100%). The IC50 values (inhibitory concentration at 50% of maximal effect) were determined by means of a 4 parameter fit.

The next experiment has as its system Caco-2 cells. Put plainly: Proliferation assay, crystal violet (Method 3). It is filed as cell-based. As to conditions: Homo sapiens, 96 h; Caco-2, 4 days; read-out: Inhibition of Caco-2 cell proliferation IC50. The protocol: as §1
Another experiment relates to DU145 cells. Put plainly: Proliferation assay, crystal violet (Method 3). It is filed as cell-based. The conditions noted are these: Homo sapiens, DU-145, 96 h; DU145, 4 days; read-out: Inhibition of DU145 cell proliferation IC50. The protocol: as §1
The subject of another experiment is HeLa-MaTu-ADR cells. Put plainly: Proliferation assay, crystal violet (Method 3). It is filed as cell-based. The conditions noted are these: Homo sapiens, 96 h, 4 days, read-out: Inhibition of HeLa-MaTu-ADR cell proliferation IC50. The protocol: as §1
The subject of another experiment is NCI-H460 cells. Put plainly: Proliferation assay, crystal violet (Method 3). The experiment is classed as cell-based. As to conditions: Homo sapiens, 96 h; NCI-H460, 4 days; read-out: Inhibition of NCI-H460 cell proliferation IC50. The protocol: as §1

Turning to `CS(=O)(Cc1cc2nc(c1)Nc1cc(c(F)cn1)-c1ccc(F)cc1OCCCCN2)=NC(=O)OCc1ccccc1` (racemic) [Example 2, (rac)-Benzyl[{[16,20-difluoro-3,4,5,6-tetrahydro-2H,12H-11,7-(azeno)-13,17-(metheno)-1,6,12,14-benzoxatriazacyclononadecin-9-yl]methyl}(methyl)oxido-λ^6-sulfanylidene]carbamate], the IC50 came to 698 nM against CDK2/CycE; 77 nM in the experiment with B16F10 cells; 98 nM in the experiment on Caco-2 cells; 93 nM in the experiment on DU145 cells; 119 nM in the experiment on HeLa-MaTu-ADR cells; 80 nM in the experiment on NCI-H460 cells.

On CDK2/CycE, `CS(=N)(=O)Cc1cc2nc(c1)Nc1cc(c(F)cn1)-c1ccc(F)cc1OCCCCN2` (racemic) [Example 3, (rac)-16,20-Difluoro-9-[(S-methylsulfonimidoyl)methyl]-3,4,5,6-tetrahydro-2H,12H-11,7-(azeno)-13,17-(metheno)-1,6,12,14-benzoxatriazacyclononadecine] displayed an IC50 of 44 nM.

In the case of `C[S+]([O-])Cc1cc2nc(c1)OCCCCc1cc(F)ccc1-c1cc(ncc1F)N2` (racemic) [Example 5, (rac)-2,18-Difluoro-9-[(methylsulfinyl)methyl]-13,14,15,16-tetrahydro-6H-7,11-(azeno)-5,1-(metheno)-12,4,6-benzoxadiazacyclooctadecine], the IC50 against CDK2/CycE was found to be 275 nM; in the experiment on Caco-2 cells it was 761 nM; in the experiment on DU145 cells it was 836 nM; with HeLa-MaTu-ADR cells, 830 nM; with NCI-H460 cells, 1070 nM.

Consider `CC(C)(C)OC(=O)N=S(C)(=O)Cc1cc2nc(c1)Nc1cc(c(F)cn1)-c1ccc(F)cc1OCCCN2` (racemic) [Example 7, (rac)-tert-butyl[{[15,19-difluoro-2,3,4,5-tetrahydro-11H-10,6-(azeno)-16,12-(metheno)-1,5,11,13-benzoxatriazacyclooctadecin-8-yl]methyl}(methyl)oxido-λ^6-sulfanylidene]carbamate], for which the IC50 turned out to be 27 nM at CDK2/CycE; 44 nM with B16F10 cells; 33 nM with Caco-2 cells; 30 nM in the experiment with DU145 cells; 53 nM in the experiment with HeLa-MaTu-ADR cells; 37 nM with NCI-H460 cells.

On to `CS(=N)(=O)Cc1cc2nc(c1)Nc1cc(c(F)cn1)-c1ccc(F)cc1OCCCN2` (racemic) [Example 8, (rac)-15,19-difluoro-8-[(S-methylsulfonimidoyl)methyl]-2,3,4,5-tetrahydro-11H-10,6-(azeno)-16,12-(metheno)-1,5,11,13-benzoxatriazacyclooctadecine], for which the IC50 against CDK2/CycE is 9.1 nM; in the experiment with B16F10 cells, 11 nM; in the experiment on Caco-2 cells, 7.6 nM; in the experiment on DU145 cells it was 5.6 nM; in the experiment with HeLa-MaTu-ADR cells, 5 nM; in the experiment with NCI-H460 cells, 39 nM.

As to `CC(C)(C)OC(=O)N=S(C)(=O)Cc1cc2nc(c1)Nc1cc(c(F)cn1)-c1ccc(F)cc1OCCCCCN2` (racemic) [Example 9, (rac)-tert-butyl[{[17,21-difluoro-2,3,4,5,6,7-hexahydro-13H-12,8-(azeno)-14,18-(metheno)-1,7,13,15-benzoxatriazacycloicosin-10-yl]methyl}(methyl)oxido-λ^6-sulfanylidene]carbamate], the IC50 at CDK2/CycE amounted to 96 nM; with B16F10 cells, 85 nM; in the experiment with Caco-2 cells, 48 nM; in the experiment with DU145 cells, 36 nM; in the experiment on HeLa-MaTu-ADR cells, 75 nM; in the experiment with NCI-H460 cells, 39 nM.

As to `CC(C)(C)OC(=O)N=S(C)(=O)Cc1cc2cc(c1)OCCCNc1cc(F)ccc1-c1nc(ncc1F)N2` (racemic) [Example 13, (rac)-tert-butyl[{[15,19-difluoro-1,2,3,4-tetrahydro-16,12-(azeno)-6,10-(metheno)-5,1,11,13-benzoxatriazacyclooctadecin-8(11H)-yl]methyl}(methyl)oxido-λ^6-sulfanylidene]carbamate], the IC50 is 68 nM in the experiment with Caco-2 cells, 55 nM with DU145 cells, 94 nM in the experiment with HeLa-MaTu-ADR cells and 79 nM in the experiment on NCI-H460 cells.

Regarding `CC(C)(C)OC(=O)N=S(C)(=O)Cc1cc2cc(c1)OCCCCSc1cc(F)ccc1-c1nc(ncc1F)N2` (racemic) [Example 21, (rac)-tert-butyl[{[16,20-difluoro-2,3,4,5-tetrahydro-12H-17,13-(azeno)-11,7-(metheno)-6,1,12,14-benzoxathiadiazacyclononadecin-9-yl]methyl}(methyl)oxido-λ^6-sulfanylidene]carbamate], the IC50 with B16F10 cells was found to be 543 nM; in the experiment on Caco-2 cells, 243 nM; in the experiment on DU145 cells it was 327 nM; in the experiment with HeLa-MaTu-ADR cells, 334 nM; in the experiment with NCI-H460 cells, 476 nM.

`CS(=N)(=O)Cc1cc2cc(c1)OCCCCSc1cc(F)ccc1-c1nc(ncc1F)N2` (racemic) [Example 22, (rac)-16,20-difluoro-9-[(S-methylsulfonimidoyl)methyl]-2,3,4,5-tetrahydro-12H-17,13-(azeno)-11,7-(metheno)-6,1,12,14-benzoxathiadiazacyclononadecine]: the IC50 is 110 nM in the experiment on B16F10 cells; 74 nM in the experiment on Caco-2 cells; 36 nM in the experiment with DU145 cells; 105 nM in the experiment with HeLa-MaTu-ADR cells; 115 nM in the experiment with NCI-H460 cells.

With `CN1CCCCOc2cc(F)ccc2-c2nc(ncc2F)Nc2cc(CS(C)(=N)=O)cc1c2` (racemic) [Example 23, (rac)-16,20-difluoro-6-methyl-9-[(S-methylsulfonimidoyl)methyl]-3,4,5,6-tetrahydro-2H,12H-13,17-(azeno)-11,7-(metheno)-1,6,12,14-benzoxatriazacyclononadecine], the IC50 against CDK2/CycE was 104 nM.

`CC(C)(C)OC(=O)N=S(C)(=O)Cc1cc2cc(c1)Nc1ncc(F)c(n1)-c1ccc(F)cc1OCCCCN2` (racemic) [Example 24, (rac)-tert-butyl[{[16,20-difluoro-3,4,5,6-tetrahydro-2H,12H-13,17-(azeno)-11,7-(metheno)-1,6,12,14-benzoxatriazacyclononadecin-9-yl]methyl}(methyl)oxido-λ^6-sulfanylidene]carbamate] came in with an IC50 against CDK2/CycE of 2570 nM.
